The record followed here is US10414754B2, “Indolizine compounds, a process for their preparation and pharmaceutical compositions containing them” (LES LABORATOIRES SERVIER, priority 2013, dated 2019).

Test [1] relates to RS4;11 leukaemia tumour line. Nature of the test: In vitro cytotoxicity (MTT) on RS4;11. It is filed as cell-based. Particulars: Homo sapiens; RS4;11 cells, 48 hours exposure. The procedure:
The cytotoxicity studies were carried out on the RS4;11 leukaemia tumour line.
The cells are distributed onto microplates and exposed to the test compounds for 48 hours.
The cell viability is then quantified by a colorimetric assay, the Microculture Tetrazolium Assay (Cancer Res., 1987, 47, 939-942).

In test [2] the target is T1, Bcl-2 protein (histag-Bcl-2, UniProtKB P10415) (Homo sapiens, UniProt P10415).
T1 construct: His tag
T1 sequence (P10415 whole entry): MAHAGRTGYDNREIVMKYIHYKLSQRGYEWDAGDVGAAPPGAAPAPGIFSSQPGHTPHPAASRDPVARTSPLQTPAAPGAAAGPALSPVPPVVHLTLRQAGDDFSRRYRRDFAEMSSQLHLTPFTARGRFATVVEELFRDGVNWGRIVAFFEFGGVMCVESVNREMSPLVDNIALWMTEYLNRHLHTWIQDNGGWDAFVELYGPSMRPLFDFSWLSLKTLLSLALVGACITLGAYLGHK
Nature of the test: Inhibition of Bcl-2 by the fluorescence polarisation technique. In kind it is binding. Particulars: fluorescence polarisation, 2 hours incubation; read-out: IC50 (nM) Bcl-2 FP. In a few lines:
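Fluorescence polarisation competition: His-tagged human Bcl-2 (2.50×10^−8 M final) was mixed with fluorescein-labelled peptide (1.00×10^−8 M final) and increasing compound concentrations. Buffer was 10 mM Hepes, 150 mM NaCl, 0.05% Tween20, pH 7.4. Polarisation was read after 2 h.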

Counter-ions that a name gives are not always drawn.

As a reminder, the IC50 is the concentration at which inhibition is half-maximal. On to `C[C@@H]1Cc2ccccc2CN1C(=O)c1cc2c(cc1-c1cc(C(=O)N(c3ccncc3)c3ccc(O)cc3)c3n1CCCC3)OCO2` [Example 42, N-(4-Hydroxyphenyl)-3-(6-{[(3R)-3-methyl-3,4-dihydroisoquinolin-2(1H)-yl]carbonyl}-1,3-benzodioxol-5-yl)-N-(pyridin-4-yl)-5,6,7,8-tetrahydro-indolizine-1-carboxamide hydrochloride], for which the IC50 in test [1] was determined as 57.6 nM; in test [2], 5.1 nM.
For `O=C(c1cc(-c2cc3c(cc2C(=O)N2Cc4ccccc4C[C@H]2CCNCC(F)F)OCO3)n2c1CCCC2)N(c1ccccc1)c1ccc(O)cc1` [Example 43, 3-(6-{[(3S)-3-{2-[(2,2-Difluoroethyl)amino]ethyl}-3,4-dihydroisoquinolin-2(1H)-yl]carbonyl}-1,3-benzodioxol-5-yl)-N-(4-hydroxyphenyl)-N-phenyl-5,6,7,8-tetrahydroindolizine-1-carboxamide], in that order: 26 nM and 4.8 nM.
On to `COC1CN(CC[C@@H]2Cc3ccccc3CN2C(=O)c2cc3c(cc2-c2cc(C(=O)N(c4ccccc4)c4ccc(O)cc4)c4n2CCCC4)OCO3)C1` [Example 44, N-(4-Hydroxyphenyl)-3-(6-{[(3S)-3-[2-(3-methoxyazetidin-1-yl)ethyl]-3,4-dihydroisoquinolin-2(1H)-yl]carbonyl}-1,3-benzodioxol-5-yl)-N-phenyl-5,6,7,8-tetrahydroindolizine-1-carboxamide], for which the IC50 in test [1] was 8.56 nM; in test [2], 2.9 nM.
For `C[C@@H]1Cc2ccccc2CN1C(=O)c1cc2c(cc1-c1cc(C(=O)N(c3ccc(O)cc3)c3cnn(CCN4CCOCC4)c3)c3ccccn13)OCO2` [Example 45, N-(4-Hydroxyphenyl)-3-(6-{[(3R)-3-methyl-3,4-dihydroisoquinolin-2(1,H)-yl]carbonyl}-1,3-benzodioxol-5-yl)-N-{1-[2-(morpholin-4-yl)ethyl]-1H-pyrazol-4-yl}indolizine-1-carboxamide hydrochloride], in that order: 63.8 nM and 3.8 nM.
Regarding `C[C@@H]1Cc2ccccc2CN1C(=O)c1cc2c(cc1-c1cc(C(=O)N(c3ccc(O)cc3)c3ccncc3F)c3ccccn13)OCO2` [Example 46, N-(3-Fluoropyridin-4-yl)-N-(4-hydroxyphenyl)-3-(6-{[(3R)-3-methyl-3,4-dihydroisoquinolin-2(1H)-yl]carbonyl}-1,3-benzodioxol-5-yl)indolizine-1-carboxamide hydrochloride], the IC50 is 27.9 nM in test [1] and 4.1 nM in test [2].
For `C[C@@H]1Cc2ccccc2CN1C(=O)c1ccc(Cl)cc1-c1cc(C(=O)N(c2ccc(O)cc2)c2cnn(C)c2)c2n1CCCC2` [Example 47, 3-(5-Chloro-2-{[(3R)-3-methyl-3,4-dihydroisoquinolin-2(1H)-yl]-carbonyl}phenyl)-N-(4-hydroxyphenyl)-N-(1-methyl-1H-pyrazol-4-yl)-5,6,7,8-tetrahydroindolizine-1-carboxamide], in that order: 90.1 nM and 4.3 nM.
For `C[C@@H]1Cc2ccccc2CN1C(=O)c1cc2c(cc1-c1cc(C(=O)N(c3ccc(O)cc3)c3cnn(C)c3)c3n1CCCC3)OCCO2` [Example 48, N-(4-Hydroxyphenyl)-3-(7-{[(3R)-3-methyl-3,4-dihydroisoquinolin-2(1H)-yl]carbonyl}-2,3-dihydro-1,4-benzodioxin-6-yl)-N-(1-methyl-1H-pyrazol-4-yl)-5,6,7,8-tetrahydroindolizine-1-carboxamide], in that order: 24.7 nM and 3.6 nM.
For the compound `C[C@@H]1Cc2ccccc2CN1C(=O)c1ccc(Cl)cc1-c1cc(C(=O)N(c2ccncc2)c2ccc(O)cc2)c2ccccn12` [Example 49, 3-(5-Chloro-2-{[(3R)-3-methyl-3,4-dihydroisoquinolin-2(1H)-yl]-carbonyl}phenyl)-N-(4-hydroxyphenyl)-N-(pyridin-4-yl)indolizine-1-carboxamide hydrochloride], the IC50 in test [1] was determined as 84.7 nM; in test [2] it was 3.7 nM.
For `CC[C@@H]1Cc2ccccc2CN1C(=O)c1ccc(Cl)cc1-c1cc(C(=O)N(c2ccc(O)cc2)c2cnc3c(ccn3C)c2)c2ccccn12` [Example 50, 3-(5-Chloro-2-{[(3R)-3-ethyl-3,4-dihydroisoquinolin-2(1H)-yl]-carbonyl}phenyl)-N-(4-hydroxyphenyl)-N-(1-methyl-1H-pyrrolo[2,3-b]pyridin-5-yl)indolizine-1-carboxamide], the values for the IC50 in test [1] and in test [2] were 28.2 nM and 2.2 nM, respectively.
Turning to `C[C@@H]1Cc2ccccc2CN1C(=O)c1cc2c(cc1-c1cc(C(=O)N(c3ccc(O)cc3)c3ccn4ccnc4c3)c3ccccn13)OCO2` [Example 51, N-(4-Hydroxyphenyl)-N-(imidazo[1,2-a]pyridin-7-yl)-3-(6-{[(3R)-3-methyl-3,4-dihydroisoquinolin-2(1H)-yl]carbonyl}-1,3-benzodioxol-5-yl)indolizine-1-carboxamide hydrochloride], the 50% inhibitory concentration (IC50) in test [1] was 68.8 nM; in test [2], 4.8 nM.
For `C[C@@H]1Cc2ccccc2CN1C(=O)c1ccccc1-c1cc(C(=O)N(c2ccc(O)cc2)c2cnc3c(ccn3C)c2)c2ccccn12` [Example 52, N-(4-Hydroxyphenyl)-3-(2-{[(3R)-3-methyl-3,4-dihydroisoquinolin-2(1H)-yl]carbonyl}phenyl)-N-(1-methyl-1H-pyrrolo[2,3-b]pyridin-5-yl)indolizine-1-carboxamide], in that order: 20.9 nM and 7.9 nM.
Consider `Cc1cn2ccc(N(C(=O)c3cc(-c4cc5c(cc4C(=O)N4Cc6ccccc6C[C@H]4C)OCO5)n4ccccc34)c3ccc(O)cc3)cc2n1` [Example 53, N-(4-Hydroxyphenyl)-3-(6-{[(3R)-3-methyl-3,4-dihydroisoquinolin-2(1H)-yl]carbonyl}-1,3-benzodioxol-5-yl)-N-(2-methylimidazo[1,2-a]pyridin-7-yl)indolizine-1-carboxamide hydrochloride], for which the IC50 in test [1] stood at 70.9 nM; in test [2], 5.4 nM.
For `Cc1ccc(N(C(=O)c2cc(-c3cc4c(cc3C(=O)N3Cc5ccccc5C[C@H]3C)OCO4)n3ccccc23)c2ccc(O)cc2)cn1` [Example 54, N-(4-Hydroxyphenyl)-3-(6-{[(3R)-3-methyl-3,4-dihydroisoquinolin-2(1H)-yl]carbonyl}-1,3-benzodioxol-5-yl)-N-(6-methylpyridin-3-yl)indolizine-1-carboxamide hydrochloride], in that order: 45 nM and 6.6 nM.
For `C[C@@H]1Cc2ccccc2CN1C(=O)c1cc2c(cc1-c1cc(C(=O)N(c3ccc(O)cc3)c3cncc(F)c3)c3ccccn13)OCO2` [Example 55, N-(5-Fluoropyridin-3-yl)-N-(4-hydroxyphenyl)-3-(6-{[(3R)-3-methyl-3,4-dihydroisoquinolin-2(1H)-yl]carbonyl}-1,3-benzodioxol-5-yl)indolizine-1-carboxamide], in that order: 22.8 nM and 5.5 nM.
The matching figures for `COc1cc(N(C(=O)c2cc(-c3cc4c(cc3C(=O)N3Cc5ccccc5C[C@H]3C)OCO4)n3ccccc23)c2ccc(O)cc2)ccn1` [Example 56, N-(4-Hydroxyphenyl)-N-(2-methoxypyridin-4-yl)-3-(6-{[(3R)-3-methyl-3,4-dihydroisoquinolin-2(1H)-yl]carbonyl}-1,3-benzodioxol-5-yl)indolizine-1-carboxamide]: 36.7 nM and 4.7 nM.
As for `O=C(c1cc2c(cc1-c1cc(C(=O)N(c3ccccc3)c3ccc(O)cc3)c3n1CCCC3)OCO2)N1CCc2ccccc2C1` [Example 57, 3-[6-(3,4-Dihydroisoquinolin-2(1H)-ylcarbonyl)-1,3-benzodioxol-5-yl]-N-(4-hydroxyphenyl)-N-phenyl-5,6,7,8-tetrahydroindolizine-1-carboxamide], the IC50 in test [1] is 282 nM; in test [2] it was 21.2 nM.
On to `CC(C)c1cc(N(C(=O)c2cc(-c3cc4c(cc3C(=O)N3Cc5ccccc5C[C@H]3C)OCO4)n3ccccc23)c2ccc(O)cc2)ccn1` [Example 58, N-(4-Hydroxyphenyl)-3-(6-{[(3R)-3-methyl-3,4-dihydroisoquinolin-2(1H)-yl]carbonyl}-1,3-benzodioxol-5-yl)-N-[2-(propan-2-yl)pyridin-4-yl)indolizine-1-carboxamide hydrochloride], for which the IC50 was found to be 68.5 nM in test [1] and 6.4 nM in test [2].
The matching figures for `C[C@@H]1Cc2ccccc2CN1C(=O)c1cc2c(cc1-c1cc(C(=O)N(c3ccc(O)cc3)c3cnc4ccnn4c3)c3ccccn13)OCO2` [Example 59, N-(4-Hydroxyphenyl)-3-(6-{[(3R)-3-methyl-3,4-dihydroisoquinolin-2(1H)-yl]carbonyl}-1,3-benzodiaxol-5-yl)-N-(pyrazolo[1,5-a]pyrimidin-6-yl)indolizine-1-carboxamide]: 21.2 nM and 4 nM.
The matching figures for `C[C@@H]1Cc2ccccc2CN1C(=O)c1ccc(F)cc1-c1cc(C(=O)N(c2ccc(O)cc2)c2cnn(C)c2)c2ccccn12` [Example 60, 3-(5-Fluoro-2-{[(3R)-3-methyl-3,4-dihydroisoquinolin-2(1H)-yl]-carbonyl}phenyl)-N-(4-hydroxyphenyl)-N-(1-methyl-1H-pyrazol-4-yl)indolizine-1-carboxamide]: 60.3 nM and 5.4 nM.
The matching figures for `C[C@@H]1Cc2ccccc2CN1C(=O)c1ccc(F)cc1-c1cc(C(=O)N(c2ccc(O)cc2)c2cnn(C)c2)c2n1CCCC2` [Example 61, 3-(5-Fluoro-2-{[(3R)-3-methyl-3,4-dihydroisoquinolin-2(1H)-yl]-carbonyl}phenyl)-N-(4-hydroxyphenyl)-N-(1-methyl-1H-pyrazol-4-yl)-5,6,7,8-tetrahydroindolizine-1-carboxamide]: 61.3 nM and 7 nM.
